Measurements from article PMC6013247, “Preclinical characterization of INCB053914, a novel pan-PIM kinase inhibitor, alone and in combination with anticancer agents, in models of hematologic malignancies” (PLoS ONE, 2018).

Tests used:
[1] = system: PIM isozyme expression in Pfeiffer DLBCL cells; assay: PIM isozyme expression in Pfeiffer DLBCL cells; format: cell-based
Pfeiffer DLBCL cells = assay: In vitro proliferation of Pfeiffer DLBCL cells, single agents and combination; format: cell-based
Procedure: Synergistic effects of INCB053914 in combination with INCB050465, cytarabine, or itacitinib, were assessed based on the Bliss independence model. In this model, the expected additive effect, with the assumption that concentration dependent effects of 2 drugs (A and B) are independent, is given by the equation EIND = EA + EB – EA •EB, where 0 ≤ EIND ≤ 1; EA and EB are the magnitudes of effects of A and B alone at given concentrations.
The interaction between effects of A and B can be described by the equation Combination Index = EIND/ EOBS, where EOBS is the observed combined effect of A + B expressed as a probability (0 ≤ EOBS ≤ 1). If the point estimate of Combination Index and its upper 97.5% confidence limit are <1 then the combined effect is synergistic; if the 2-sided 95% confidence intervals (CI) encompass 1 then the combined effect is additive (ie, independent); if the point estimate of Combination Index and the lower 2.5% confidence limit are >1 then the combined effect of A + B are antagonistic.

[2] = system: human KG-1 AML xenografts; assay: Tumor growth in KG-1 (AML) xenograft, combination with cytarabine; format: in vivo, mouse; conditions: KG-1 (AML) tumors
Procedure: Female immune compromised (severe combined immunodeficiency [SCID]) mice (5–9 weeks of age; Charles River Laboratories, Wilmington, Massachusetts) were inoculated with MOLM-16, KG-1, or KMS-12-BM cells. A cell suspension in Dulbecco’s phosphate-buffered saline (DPBS) (1 × 10^8 cells/ml) was mixed 1:1 (v/v) with matrigel, and 200 μl was injected subcutaneously into the flank of each mouse. […] The treatment of tumor-bearing mice started 7 to 24 days after tumor inoculation for efficacy studies and approximately 14 to 27 days after tumor inoculation for pharmacodynamic studies.
Synergistic effects of INCB053914 in combination with INCB050465, cytarabine, or itacitinib, were assessed based on the Bliss independence model [56, 57]. In this model, the expected additive effect, with the assumption that concentration dependent effects of 2 drugs (A and B) are independent, is given by the equation EIND = EA + EB – EA •EB, where 0 ≤ EIND ≤ 1; EA and EB are the magnitudes of effects of A and B alone at given concentrations.
The interaction between effects of A and B can be described by the equation Combination Index = EIND/ EOBS, where EOBS is the observed combined effect of A + B expressed as a probability (0 ≤ EOBS ≤ 1). […]

[3] = system: pBAD, pSTAT3 and MYC in INA-6 (MM) tumors; assay: pBAD, pSTAT3 and MYC levels in INA-6 (MM) tumors; format: in vivo, mouse; conditions: INA-6 (MM) tumors in mice
Procedure: The PI3Kδ inhibitor INCB050465 (10 mg/kg once a day orally) was evaluated in combination with INCB053914 (30 mg/kg once a day orally) in mice bearing Pfeiffer (DLBCL) xenografts, a model sensitive to PI3Kδ inhibition (eight mice/group). Cytarabine was administered via intraperitoneal injection at a standard dose of 20 mg/kg twice a week, in combination with oral INCB053914 at a submaximally efficacious dose of 20 mg/kg twice a day for 12 days in mice bearing human KG-1 AML xenografts, a cytarabine-sensitive model (eight mice/group). The oral JAK1-selective inhibitor itacitinib (60 mg/kg twice a day orally) was assessed in combination with INCB053914 (100 mg/kg twice a day orally) after 8 days of administration to SCID mice bearing INA-6 (MM) xenografts (eight mice/group), a model sensitive to JAK inhibition.

INA-6 cells = assay: STAT3(Y705) and PIM kinase substrate phosphorylation in INA-6 cells in culture; format: cell-based; conditions: INA-6 cells treated for 24 hours in culture
Procedure: Fig S1. Effects of INCB053914 on STAT3(Y705) and PIM kinase substrate phosphorylation in INA-6 cells treated for 24 hours in culture.

## CCOc1c([C@H](C)n2nc(C)c3c(N)ncnc32)cc(Cl)c(F)c1[C@@H]1CNC(=O)C1 [INCB050465]
[1]
  expression of all three PIM isozymes relative to baseline: concentration-dependent increases
  increase in PIM2 expression relative to baseline: ~ 2.5 fold
Pfeiffer DLBCL cells
  proliferation of Pfeiffer cells, single agent: inhibited

## Nc1ccn([C@@H]2O[C@H](CO)[C@@H](O)[C@@H]2O)c(=O)n1 [cytarabine, Cytarabine, reference compound]
[2]
  tumor growth, single agent: inhibited

## N#CCC1(n2cc(-c3ncnc4[nH]ccc34)cn2)CN(C2CCN(C(=O)c3ccnc(C(F)(F)F)c3F)CC2)C1 [itacitinib, reference compound]
[3]
  MYC levels: decreased MYC levels
  level of pSTAT3: decrease
INA-6 cells
  PIM kinase substrate phosphorylation: unaffected

## N#CC[C@H](C1CCCC1)n1cc(-c2ncnc3[nH]ccc23)cn1 [ruxolitinib]
INA-6 cells
  PIM kinase substrate phosphorylation: unaffected
